Read-outs that look alike come from different tables or passages of the source.
Legend:
human glioma U87 cells = experiment: Tumor cell vacuolization (methuosis) scoring, U87; assay type: cell-based; conditions: for Vacuolation Score: 0.01-3.160 μM, microscope
Experimental: (§1) FIG. 2. Vacuolization of tumor cells. 100 microliter culture medium (RPMI1640, 2 mmol glutamine, 10% fetal bovine serum) containing 10^3 human colon adenocarcinoma cells (HCT15) or human brain glioma cells (U87) and a solvent DMSO control or 100 nM #40 compound (L16) was plated into a 96-well cell culture plate, and cell morphological image was taken under a phase contrast microscope after cultured at 5% CO2 and 37° C. for 96 hours.
Some cells gradually became round and eventually bursted. These changes are consistent with the features of cell death by methuosis (FIG. 2).
In order to compare the ability of different compounds to cause cell vacuolization, 100 μL culture media (RPMI1640, 2 mmol glutamine, 10% fetal bovine serum) comprising 10^3 human glioma U87 cells and final concentrations of 0.01, 0.0316, 0.1, 0.316, 1.0, 3.160 μM respectively of the compounds to be tested were inoculated into a 96-well culture plate. After cultured at 5% CO2 and 37° C. for 96 hours, cell morphology was observed under a high-magnification microscope, and the ability of the compounds to cause cell vacuolization was scored. 5 scores were given when obvious vacuolization occurred at 10 nM, 4 scores at 31.6 nM, 3 scores at 100 nM, 2 scores at 316 nM, 1 score at 1000 nM, and 0 score was given if no vacuolation occurred at any concentration.

vimentin = target: T1, vimentin (Homo sapiens, UniProt P08670); experiment: Fishing of a target protein with a probe (photo-crosslinking, click reaction, MALDI-MS/MS); assay type: binding; conditions: 0.5 μM probe, U87 cells, 3 hours, UV crosslinking
T1 construct: #79 compound used as a probe is bonded in situ to a target protein within a cell; endogenous in cells; host or cells: U87 human glioma cells
T1 sequence (P08670 whole entry): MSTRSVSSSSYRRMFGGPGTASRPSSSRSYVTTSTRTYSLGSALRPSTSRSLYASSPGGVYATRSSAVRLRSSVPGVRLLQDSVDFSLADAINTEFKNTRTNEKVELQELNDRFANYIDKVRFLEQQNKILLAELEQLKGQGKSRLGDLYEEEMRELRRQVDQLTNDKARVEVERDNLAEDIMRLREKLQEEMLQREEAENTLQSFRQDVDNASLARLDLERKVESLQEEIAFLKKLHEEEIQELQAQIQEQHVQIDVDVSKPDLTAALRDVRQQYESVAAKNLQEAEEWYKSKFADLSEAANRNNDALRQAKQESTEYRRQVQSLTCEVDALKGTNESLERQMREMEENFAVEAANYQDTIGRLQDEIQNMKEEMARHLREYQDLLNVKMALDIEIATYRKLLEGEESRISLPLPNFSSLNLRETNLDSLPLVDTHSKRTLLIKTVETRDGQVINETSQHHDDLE
Experimental: FIG. 4 summarizes isolation and identification of a target protein corresponding to a compound causing cell vacuolization. The related steps are described briefly as follows.
An amount of human glioma cells U87 were plated in an 150 cm^2 Petri dish and cultured for 48 hours to reach 75-90% confluence. The culture medium was replaced with a prewarmed medium containing either 0.5 μM probe (#79 compound) or an equivalent volume of DMSO control. The cells continued in culture for 3 hours.
The cells were washed twice with a prechilled phosphate buffer saline (PBS). The cell-culture dish was placed on ice, and the cells were irradiated with ultraviolet light (an ultraviolet lamp having a power of 100 W, wavelength 350 nm, or 315-385 nm) through the top of the dish for 1 hour. Alternatively, a minimal amount of prechilled PBS (10 ml/150 cm^2) was added to the cell-culture dish which was then placed on an ultraviolet irradiator. The bottom of the cell-culture dish received irradiation for 30 minutes (wavelength 315-385 nm, time being adjusted in light of the ultraviolet power).
The cells were dissociated with trypsin, precipitated by centrifugation, and washed twice with PBS. […] The protein concentration of the cell lysate was measured using the Bradford method. […]

[1] = tested on: human colon adenocarcinoma cells (HCT15); experiment: Tumor cell vacuolization, HCT15; assay type: cell-based; conditions: 100 nM, 96 hours, phase contrast microscope
Experimental: as §1

[2] = tested on: cell lines of human non-small cell lung cancer (H522); experiment: In vitro antineoplastic activity, MTT experiment, H522; assay type: cell-based; conditions: H522 cells, 48 hours, highest concentration tested 31.6 μM (>30: inhibition rate <50%)
Experimental: (§2) MTT, RPM1640 culture medium, fetal bovine serum, 96-well plate, CO2 thermostatic incubator, American BIO-RAD680 microplate reader, cell lines of human non-small cell lung cancer (H522), and cell lines of human brain glioma (U87) were all obtained commercially.
(§3) (1) Cell inoculation: A single cell suspension was prepared with culture media supplemented with 10% fetal bovine serum, plated into a 96-well plate with 5000 cells per well, each well having a volume of 100 μL, and cultured overnight.
(§4) (2) Preparation of compound solutions: a DMSO stock solution of a compound was diluted on a sterile bench with a culture medium into 5 concentrations to be tested, wherein a double dilution was employed between two adjacent concentrations.
(§5) (3) The compound solutions of various concentrations were added into the 96-well plate cultured overnight, with 100 μL added per well, triplicated wells for each concentration. Since the peripheral wells can have edge effect and are susceptible to contamination, no cells or compounds were added thereto; instead, 100 μL culture solution was added as a blank. Additionally, 100% wells were set to contain the cells and 100 μL culture media without any compound. The plates were incubated in a thermostatic incubator at 37° C. for 48 hours.
(§6) (4) Staining: 10 μL MTT solution (5 mg/mL, prepared with PBS) was added into the 96-well plate for staining. After incubation for 4 hours, centrifugation was performed at 2500 rpm for 10 minutes. Then, a multiple pipette was used to suck the culture solution out of the wells carefully without sucking out the cells while the pipette tip faced downward. 150 μL DMSO was added and shaken on a shaker for 5-10 minutes. Crystals were allowed to dissolve fully, and an OD value for each well was measured using the microplate reader at 570 nm. The inhibition rate was calculated as follows: Inhibition rate (%)=(average OD value of 100% wells−average OD value of compound wells)/(average OD value of 100% wells−average OD value of blank wells)×100%

[3] = tested on: cell lines of human brain glioma (U87); experiment: In vitro antineoplastic activity, MTT experiment, U87; assay type: cell-based
Experimental: as §2, §3, §4, §5, §6

IC50 [2] [µM]	IC50 ([3]; U87 cells, MTT, 48 hours, highest concentration tested 31.6 μM, read-out: IC50(μM) U87) [µM]	IC50 ([3]; ability to inhibit cell proliferation, U87 (FIG. 3), unit inferred, read-out: IC50) [µM]	Compound	Vacuolation Score (human glioma U87 cells; U87 cells, 96 hours)	ability to cause cell vacuolization (in words) (human glioma U87 cells; U87 cells, among the compounds tested)	target protein of the compound (vimentin)	vacuolization of U87 cells (human glioma U87 cells; 100 nM, 96 hours, phase contrast microscope)	vacuolization of HCT15 cells [1]
			C#CCCC1(CCNC(=O)c2ccc(NC(=O)Nc3ccc(Nc4nc(/C=C/c5ccccc5)nc(N5CCOCC5)n4)cc3)cc2)N=N1 [compound 79, (E)-N-(2-(3-(1-butyn-4-yl)-3H-diaziridin-3-yl)ethyl)-4-(3-(4-((4-(morpholin-1-yl)-6-styrenyl-1,3,5-triazin-2-yl)amino)phenyl)urea)benzamide]	4.5	same cell phenotype	vimentin		
0.78 ± 0.04	1.71 ± 0.06	1.71	O=C(Nc1ccc(Cl)cc1)Nc1ccc(Nc2nc(/C=C/c3cccc([N+](=O)[O-])c3)nc(N3CCOCC3)n2)cc1 [L16, (E)-1-(4-chlorophenyl)-3-(4-(4-(morpholin-1-yl)-6-(3-nitrostyrenyl)-1,3,5-triazinyl-2-amino)phenyl)urea]	4 (4 scores at 31.6 nM)			significant vaculization	significant vaculization

Source: patent US11390591B2, “2,4,6-trisubstituted s-triazine compound, preparation method therefor, and use thereof” (Aluda Pharmaceuticals, Inc., priority 2016, dated 2022)
